Measurements as given in ChEMBL document CHEMBL1143486, “The synthesis and 16S A-site rRNA recognition of carbohydrate-free aminoglycosides” (Bioorg Med Chem Lett, 2005).
pIC50, pKd: −log10 of the molar value.

Assays:
[1] = molecular target: Ribosomal RNA A-site; assay: Dissociation constant against 16S rRNA A-site; type: nucleic-acid assay
[2] = tested on: Nucleic Acid; assay: Inhibitory concentration against cell-free bacterial transcription / translation (T/T) assay; type: functional

Structure (SMILES) | pKd [1] | pIC50 [2]
NC1C[C@@H](N)[C@@H](O)C(O)[C@H]1OCSc1ccnc2cc(C(F)(F)F)ccc12 (stereo not given in full) | 4.46 | < 4.30
CN(C)CCCNC(=O)COC1[C@@H](OCSc2ccnc3cc(C(F)(F)F)ccc23)C(N)C[C@@H](N)[C@H]1O (stereo not given in full) | 4.06 | < 4.30
NCCCNCCOC1[C@@H](OCSc2ccnc3cc(C(F)(F)F)ccc23)C(N)C[C@@H](N)[C@H]1O (stereo not given in full) | 5.70 | 5.68
NCCCNCCO[C@H]1C(O)[C@@H](OCSc2ccnc3cc(C(F)(F)F)ccc23)C(N)C[C@H]1N (stereo not given in full) | 5.82 | 4.82
CN(C)CCCNC(=O)CO[C@H]1C(O)[C@@H](OCSc2ccnc3cc(C(F)(F)F)ccc23)C(N)C[C@H]1N (stereo not given in full) | 3.62 | < 4.30
NC[C@H]1O[C@H](O[C@H]2[C@H](O)[C@@H](O)[C@H](N)C[C@@H]2N)[C@H](N)[C@@H](O)[C@@H]1O [NEAMINE] | 5.30 | < 4.30
NC[C@@H]1O[C@H](O[C@H]2[C@@H](O)[C@H](O[C@@H]3[C@@H](O)[C@H](N)C[C@H](N)[C@H]3O[C@H]3O[C@H](CO)[C@@H](O)[C@H](O)[C@H]3N)O[C@@H]2CO)[C@H](N)[C@@H](O)[C@@H]1O [PAROMOMYCIN] | 7.00 | 6.22

The remaining lines, values ahead:

pKd [1] | pIC50 [2] | Structure (SMILES)
3.50 | < 4.30 | COc1ccc(CO[C@H]2C(N)C[C@@H](N)[C@@H](O)C2O)cc1 (stereo not given in full)
5.00 | < 4.30 | COc1ccc(CO[C@H]2C(N)C[C@@H](N)[C@@H](O)C2OCCNCCCN)cc1 (stereo not given in full)
4.57 | < 4.30 | COc1ccc(CO[C@H]2C(N)C[C@@H](N)[C@@H](OCCNCCCN)C2O)cc1 (stereo not given in full)
